Source: BindingDB's records for doi:10.7270/Q2RF5SF5 (Burnham Center For Chemical Genomics, 2008)

Biological target: Heat shock 70 kDa protein 1A (Homo sapiens, UniProt V9GZ37)
Assay: Hsp70 inhibitors, biochemical, TR-FRET (AID 786)

Chain of Heat shock 70 kDa protein 1A (V9GZ37 whole entry): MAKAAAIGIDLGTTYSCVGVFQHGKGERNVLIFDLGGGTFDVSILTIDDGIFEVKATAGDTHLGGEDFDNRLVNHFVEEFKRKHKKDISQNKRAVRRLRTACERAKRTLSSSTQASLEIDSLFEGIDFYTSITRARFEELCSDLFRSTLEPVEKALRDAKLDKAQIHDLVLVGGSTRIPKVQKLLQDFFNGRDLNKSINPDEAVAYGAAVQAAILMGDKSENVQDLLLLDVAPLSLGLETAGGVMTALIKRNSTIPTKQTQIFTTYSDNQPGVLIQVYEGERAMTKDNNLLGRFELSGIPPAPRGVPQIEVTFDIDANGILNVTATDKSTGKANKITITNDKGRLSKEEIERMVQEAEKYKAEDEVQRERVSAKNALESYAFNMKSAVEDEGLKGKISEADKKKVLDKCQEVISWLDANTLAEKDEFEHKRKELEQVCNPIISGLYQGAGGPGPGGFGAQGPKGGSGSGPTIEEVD

IC50 | SMILES
17.4 µM | C=c1[nH]n(-c2cccc(C(=O)O)c2)c(=O)c1=CC=Cc1ccco1 [SMR000113614]
> 100 µM | CC(=O)N1CCC2(CC1)c1c(n[nH]c1C)OC(=N)C2C#N (configuration not stated) [6-azanyl-1'-ethanoyl-3-methyl-spiro[2H-pyrano[2,3-c]pyrazole-4,4'-piperidine]-5-carbonitrile]
